What was measured:
[1] = tested on: human umbilical vein endothelial cells (HUVECs); experiment: HUVEC tube formation, in vitro angiogenesis assay; assay type: cell-based
Experimental: Human umbilical vein endothelial cells (HUVECs) were purchased from Clonetics, and were used between passages 4 and 9. HUVECs were cultured on 0.1% gelatin-coated (Sigma) plates in endothelial growth medium-2 (EGM-2; Clonetics) in tissue culture flasks at 37° C. in a humidified atmosphere of 5% CO2. HUVECs (10^4 cells) were seeded in a 96-well plate coated with 50 μl of ECMatrix (Chemicon) or Matrigel (BD Bioscience) according to the manufacturer's instructions. Cells were incubated for 16 h on EGM-2 containing thiabendazole, dissolved in 1% DMSO. Negative control cells were treated with 1% DMSO in the same manner. As a positive control, siRNA versus the human HoxA9 sequence^30 was transfected into HUVECs using Lipofectamine RNAiMAX (Invitrogen) according to the manufacturer's instructions. Tube formation was observed using an inverted microscope (Nikon, eclipse TS100), and branch points were measured using ImageJ software (http://rsb.info.nih.gov/ij).

[2] = tested on: developing Xenopus embryos; experiment: Ectopic angiogenesis stimulated by VEGF-soaked beads implanted into Xenopus embryos; assay type: in vivo, Xenopus laevis
Experimental: FIG. 12. TBZ inhibits ectopic angiogenesis (note the doubled PCV in the left panel) stimulated by Affy-gel blue beads (75-150 μm diameter, indicated by white arrowheads) pre-soaked with 0.7 mg/ml vascular endothelial growth factor (VEGF) and microsurgically implanted into developing Xenopus embryos, assaying for the vasculature by ISH versus erg or apinr (showing data for erg). 6 of 8 control animals developed ectopic PCV or VV, as opposed to 0 of 9 TBZ-dosed animals (p value=0.0023).
Female adult Xenopus were ovulated by injections of human chorionic gonadotropin, and eggs were fertilized in vitro and dejellied in 3% cysteine (pH 7.9) and subsequently reared in ⅓×Marc's modified Ringer's (MMR) solution. For microinjections, embryos were placed in a solution of 2% Ficoll in ⅓×MMR solution, injected using forceps and an Oxford universal manipulator, reared in 2% Ficoll in ⅓×MMR to stage 9, then washed and reared in ⅓×MMR solution alone. For bilateral rab11b knock-down experiments, the posterior cardinal vein and intersomitic veins were targeted by injecting Morpholino antisense oligonucleotides (MOs) into the two ventral cells equatorially at the four-cell stage. For unilateral knockdown, only one ventral cell was injected. MOs were injected at 40 ng per blastomere. […]

[3] = tested on: tubulin proteins; experiment: Quantitative mass spectrometry of tubulins in HUVECs; assay type: cell-based, human; details: 250 μM TBZ, 24 hours
Experimental: Following alkylation, samples were diluted in digestion buffer (50 mM Tris-HCl, pH 8.0, 2 mM CaCl2) to a final 2,2,2-trifluoroethanol concentration of 5% (v/v) and digested using proteomics grade trypsin (Sigma) at 1:50 (enzyme/protein) concentration and incubated at 37° C. for 4-5 h. Digestion was halted with the addition of 1% formic acid (v/v), and sample volume was reduced to 200 μl by SpeedVac centrifugation prior to loading on […] (Thermo). Samples were eluted (60% acetonitrile, 0.1% formic acid), reduced to 10 μl by SpeedVac centrifugation, and resuspended in sample buffer (5% acetonitrile, 0.1% formic acid). Tryptic peptides were then filtered through Microcon 10-kDa centrifugal filters (Millipore), and collected as flow-through. Peptides were chromatographically separated on a Zorbax reverse-phase C-18 column (Agilent) via a 230 min 5-38% acetonitrile gradient, then analyzed by on-line nanoelectrospray-ionization tandem mass spectrometry on an LTQ-Orbitrap (Thermo Scientific). […] Differential expression of proteins across TBZ-treated and control samples was quantified from the MS2 spectral count data using the APEX method of relative quantification^32.

[4] = tested on: mitochondria; experiment: Mitochondrial mass and membrane potential (MitoTracker Green/Red); assay type: cell-based
[5] = tested on: HT1080 human fibrosarcoma xenograft; experiment: HT1080 human fibrosarcoma xenograft model; assay type: in vivo, athymic Cre nu/nu mice; details: TBZ 50 mg/kg
Experimental: Specific pathogen-free athymic Cre Nu/nu mice were purchased from Charles River Laboratories. The HT-1080 human fibrosarcoma cell line was obtained from the American Type Culture Collection (ATCC). HT-1080 cells were cultured in DMEM (Gibco) containing 10% fetal bovine serum (FBS, Gibco) in tissue culture flasks at 37° C. in a humidified atmosphere of 5% CO2. In order to generate a mouse xenograft model, a suspension of the HT-1080 cells (3×10^6 in 50p1 PBS) mixed with an equal volume of Matrigel (BD Bioscience) was subcutaneously implanted into the flank region of 7-8 week old female mice. Upon establishment of tumors (approx. 40 mm^3), mice were given intraperitoneal injections of 1 mg thiabendazole (Sigma-Aldrich), suspended in 20 μl 100% DMSO. As a control, an equal volume of DMSO was injected in the same manner. Tumor growth was monitored by measuring the length and width of each tumor using digital calipers, and the tumor volume in mm^3 calculated by the formula: Volume=(width)^2×length/2. Upon a tumor reaching the maximum size permitted by the Institutional Animal Care and Use Committee (1.5 cm in diameter), the mouse was sacrificed, and the tumor excised. […] Control cells received 1% DMSO.

[6] = tested on: HT1080 cells; experiment: HT1080 cell proliferation in vitro; assay type: cell-based, human; details: cultured in vitro
From the text: FIG. 21. […] Error bars represent mean±1 s.d. across 14-15 fields of view of 200× magnification confocal microscopy cell images across 2 independent experiments. Scale bar, 100 μm.

c1ccc2[nH]c(-c3cscn3)nc2c1 [TBZ, 4-(1H-1,3-benzodiazol-2-yl)-1,3-thiazole]
angiogenesis (tube formation) in HUVECs ([1]; 100 and 250 μM TBZ in 1% DMSO, 16 h): inhibited angiogenesis in a dose-dependent manner
concentration at which angiogenesis inhibition was observed ([1]; human cells in vitro): 100 to 250 µM
animals that developed ectopic PCV or VV ([2]; beads soaked with 0.7 mg/ml VEGF, control 6 of 8, p value=0.0023): 0 of 9
ectopic angiogenesis induced by ectopic VEGF ([2]; frog embryos): blocked
abundance of several tubulin proteins [3]: significant reduction
mitochondrial mass (MitoTracker Green signal) [4]: no differences
mitochondrial membrane potential (ratio of MitoTracker Red signal to Mitotracker Green signal) [4]: no differences
tumor microvessel density in xenografts (CD31 staining) [5]: significantly impair
xenograft growth, time course of tumor size and final tumor mass ([5]; intraperitoneal, 27 d): significantly slowed
rate of proliferation in HT1080 cells [6]: did not alter
